{"source": "PubChem BioAssay AID463199", "about": "(Broad Institute, 2010)", "note": "The source made the active and inactive calls.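 The calls were made as follows: active = AC50, the dose giving half-maximal effect, exceeds a fixed cutoff for a compound that rescues yeast growth under heat; inactive = the rest, inconclusive results apart.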"}
{"test_system": "S. cerevisiae Burl-1 ts mutant growth, BacTiter-Glo, 38.5C 24 h", "test": "growth induction of Burl-1 ts yeast mutant, dose response, counter-screen for SUMOylation pathway inhibitor project, whole organism, S. cerevisiae, luminescence (AID 463199)"}
{"smiles": "Cn1c(=O)c2c(ncn2CC(=O)OCC(=O)Nc2ccc(Cl)cc2)n(C)c1=O", "AC50": "> 42 µM (inactive)"}
{"smiles": "Cc1ccc(C)c(-n2nnnc2SCC(=O)Nc2c(C)n(C)n(-c3ccccc3)c2=O)c1", "AC50": "> 42 µM (inactive)"}
{"smiles": "Cc1cc2c3c(c1)C1(SCC(=O)N1c1ccc(F)cc1)C(=O)N3C(C)(C)CC2C", "note": "(stereo not given)", "AC50": "> 42 µM (inactive)"}
{"smiles": "COC(=O)CCCC(=O)NCC1(N(C)Cc2ccccc2)Cc2ccccc2C1", "AC50": "> 42 µM (inactive)"}
{"smiles": "CC(NC(=O)C1CCCN(S(=O)(=O)N2CCOCC2)C1)c1ccccc1", "note": "(stereo not given)", "AC50": "> 42 µM (inactive)"}
{"smiles": "COc1ccc(-c2cc(CC3(C(=O)O)CCN(C(=O)OC(C)(C)C)CC3)on2)c(OC)c1", "AC50": "> 42 µM (inactive)"}
{"smiles": "COc1ccccc1NC(=O)NCCc1c[nH]c2ccccc12", "AC50": "> 42 µM (inactive)"}
{"smiles": "OC1CN=C2CCCc3c2n(c2ccc(Cl)cc32)C1", "note": "(stereo not given)", "AC50": "> 42 µM (inactive)"}
{"smiles": "O=C(Nc1ccc(Cl)cc1)N1CCC(c2nc(-c3ccc(F)cc3)no2)CC1", "AC50": "> 42 µM (inactive)"}
{"smiles": "CCc1cc2c(=O)c(-c3nc4ccccc4[nH]3)coc2c(CN2CCCCC2)c1O", "AC50": "> 42 µM (inactive)"}
{"smiles": "COc1ccc(C(=O)N/C(=C\\c2cc(OC)c(OC)cc2[N+](=O)[O-])C(=O)NCCO)cc1", "AC50": "> 42 µM (inactive)"}
{"smiles": "CCOC(=O)Cn1c(=O)n(Cc2ccco2)c(=O)c2ccc(C(=O)NCCc3ccccc3)cc21", "AC50": "> 42 µM (inactive)"}
{"smiles": "O=c1cc(-c2ccccc2)nc(N2CCN(Cc3ccccc3)CC2)[nH]1", "AC50": "> 42 µM (inactive)"}
{"smiles": "CCOC(=O)COc1nc(-c2ccc(C)cc2)cc(-c2ccco2)c1C#N", "AC50": "> 42 µM (inactive)"}
{"smiles": "O=C(Nc1ccc([N+](=O)[O-])cn1)c1ccc2c(c1)OCO2", "AC50": "> 42 µM (inactive)"}
{"smiles": "Oc1cccc2ccc(/C=C/c3ccccc3Br)nc12", "AC50": "> 42 µM (inactive)"}
{"smiles": "O=C(N/N=C/c1ccccn1)NC12CC3CC(CC(C3)C1)C2", "AC50": "> 42 µM (inactive)"}
{"smiles": "COc1ccc(C(=O)O/N=C(\\N)c2ccccc2)cc1OC", "AC50": "> 42 µM (inactive)"}
{"smiles": "COc1cc2c(cc1OC)CN(C(=O)Cc1c(F)cccc1Cl)CC2", "AC50": "> 42 µM (inactive)"}
{"smiles": "COc1ccc(-c2nc(C#N)c(NC(C)c3ccccc3)o2)cc1OC", "note": "(stereo not given)", "AC50": "> 42 µM (inactive)"}
{"smiles": "O=C(NNC(=O)c1ccccc1O)c1ccco1", "AC50": "> 42 µM (inactive)"}
{"smiles": "CCC(C)[C@H](N)c1nnc(SCC(=O)Nc2cccc(Cl)c2)o1", "note": "(stereo not given in full)", "AC50": "> 42 µM (inactive)"}
{"smiles": "COc1ccccc1-n1c(O)c(/C=C2\\C=Nc3ccccc32)c(=O)[nH]c1=O", "AC50": "> 42 µM (inactive)"}
{"smiles": "CC(C)CCNC(=O)Nc1ccc2c(c1)N(C)C(=O)CS2", "AC50": "> 42 µM (inactive)"}
{"smiles": "O=C(O)CCC(NC(=O)c1ccc(Cl)cc1)C(=O)O", "note": "(stereo not given)", "AC50": "> 42 µM (inactive)"}
{"smiles": "COc1ccc(N(C(=O)c2ccncc2)S(=O)(=O)c2ccc(F)cc2)cc1", "AC50": "> 42 µM (inactive)"}
{"smiles": "COc1ccc(CCNC(=O)C/C(C)=N/NC(=O)COc2ccc(C)cc2Br)cc1OC", "AC50": "> 42 µM (inactive)"}
{"smiles": "NS(=O)(=O)c1cccc(NC(=O)c2cccnc2Oc2ccccc2)c1", "AC50": "> 42 µM (inactive)"}
{"smiles": "COc1ccccc1N(CC(=O)NCC1CCCO1)C(=O)CCC(=O)Nc1cc(C)on1", "note": "(stereo not given)", "AC50": "> 42 µM (inactive)"}
{"smiles": "O=[N+]([O-])c1cc([N+](=O)[O-])c2cc3ccccc3nc2c1", "AC50": "> 42 µM (inactive)"}
{"smiles": "CC(C)c1ccc(C2C(C(=O)c3ccco3)=C(O)C(=O)N2CCN2CCOCC2)cc1", "note": "(stereo not given)", "AC50": "> 42 µM (inactive)"}
{"smiles": "COc1ccc(NC(=O)c2ccc(S(=O)(=O)N(C)c3ccccc3)cc2)cn1", "AC50": "> 42 µM (inactive)"}
{"smiles": "COc1cc(NC(=O)CCN2CCN(Cc3ccccc3)CC2)cc(OC)c1", "AC50": "> 42 µM (inactive)"}
{"smiles": "O=c1[nH]c(O)c(N=Nc2cc([N+](=O)[O-])ccc2O)c(=O)[nH]1", "AC50": "> 42 µM (inactive)"}
{"smiles": "CCn1c(SCC(=O)Nc2ccc(NC(=O)c3ccco3)cc2)nnc1-c1cccs1", "AC50": "> 42 µM (inactive)"}
{"smiles": "O=C(N1CCOCC1)C1(S(=O)(=O)c2ccccc2)CC=CC1", "AC50": "> 42 µM (inactive)"}
{"smiles": "O=C(COC(=O)C1COc2ccccc2O1)NC1CCS(=O)(=O)C1", "note": "(stereo not given)", "AC50": "> 42 µM (inactive)"}
{"smiles": "CN(C)CCOC(=O)CCc1ccccc1", "AC50": "> 42 µM (inactive)"}
{"smiles": "Cc1ccnc(NC(c2cccnc2)c2ccc3cccnc3c2O)c1", "note": "(stereo not given)", "AC50": "> 42 µM (inactive)"}
{"smiles": "CN(CCOc1ccc(Cl)cc1)CC(=O)Nc1ccc(OC(F)F)cc1", "AC50": "> 42 µM (inactive)"}
{"smiles": "COc1cc(/C=C(\\NC(=O)c2ccccc2)C(=O)Nc2nccs2)ccc1OC(C)=O", "AC50": "> 42 µM (inactive)"}
{"smiles": "CC(C)C(OC(=O)CN1C(=O)COc2ccccc21)C(=O)NC1CCCC1", "note": "(stereo not given)", "AC50": "> 42 µM (inactive)"}
{"smiles": "Fc1cccc(Nc2ncnc3sccc23)c1", "AC50": "> 42 µM (inactive)"}
{"smiles": "COCCN1C(=O)/C(=C/c2cc3c(cc2Br)OCO3)NC1=S", "AC50": "> 42 µM (inactive)"}
{"smiles": "Cc1ccc(NC(=O)CN2C(=O)COc3ccc(S(=O)(=O)N4CCOCC4)cc32)cc1F", "AC50": "> 42 µM (inactive)"}
{"smiles": "CN(Cc1cccnc1)Cc1cn[nH]c1-c1ccc(-c2ccccc2)cc1", "AC50": "> 42 µM (inactive)"}
{"smiles": "COc1ccc2c(c1)OC[C@H]1[C@H]2N2C(=O)c3cc(Br)ccc3NC(=O)[C@@]2(C)[C@H]1c1ccccc1", "AC50": "> 42 µM (inactive)"}
{"smiles": "CCOC(=O)C1(Cc2cccc(Cl)c2)CCCN(C(=O)CCOC)C1", "note": "(stereo not given)", "AC50": "> 42 µM (inactive)"}
{"smiles": "CC(C)CCOCc1nc2sc3c(c2c(=O)[nH]1)CCC(C)C3", "note": "(stereo not given)", "AC50": "> 42 µM (inactive)"}
{"smiles": "Cc1cccc(N2C(=O)CSC2c2cccnc2)c1", "note": "(stereo not given)", "AC50": "> 42 µM (inactive)"}
